Reference: patent US20230103965A1, “NOVEL ACTIVATORS OF THE LIPIDATING TRANSPORTER ATP BINDING CASSETTE PROTEIN TYPE 1 (AB-CA1) AND THERAPEUTIC USES THEREOF” (RAMOT AT TEL-AVIV UNIVERSITY LTD., priority 2020, published 2023)

What was measured:
apoE4 TR mice = assay: Intraventricular Alzet pump administration to apoE4 TR mice, 11 days; assay type: in vivo; conditions: intraventricular pump 11 days, vs ACSF
Method: These experiments utilized the Alzet osmotic pump to administer labeled compounds #10 and N1 into the ventricles of apoE4 TR mice. The Alzet pumps administered 0.25 μl/hr of the compounds for 11 days. The reagents concentrations were […] for compounds #10 and N1, respectively, reaching estimated concentrations of 200 μM and 250 μM in the CSF. As control groups, apoE3 and apoE4 mice injected with artificial cerebrospinal fluid were used. Four groups, each containing 5 mice were used in the experiments. The total SDS levels in the different groups were measured. […] FIG. 16 depicts the results of the high molecular weight complexes indicating the increase in the apoE4 treated with compounds #10 and N1.
High AT180 corresponds to hyperphosphorylated tau which is pathological.

Rodent Astrocytes = assay: In situ Aβ plaque digestion by apoE4 astrocytes (orthogonal assay); assay type: cell-based
Method: FIG. 7: Schematic representation of assay measuring in situ A$ plaque degradation by apoE3 and apoE4 astrocytes. The assay is designed to measure the ability of astrocytes to digest senile plaques from brain slides of APP mice, which is impaired in apoE4 expressing astrocytes.
FIG. 9: Activity of test compounds (HTS hits) in the plaque digestion assay. Positive control is CS-6253 (25 μg/ml). Test compound concentration is 50 μM.
In situ Aβ plaque degradation by apoE3 and apoE4 astrocytes. This assay is based on measurement of the ability of the astrocytes to clear Aβ plaques following their co-incubation with brain sections of 5×FAD mice, which contain Aβ plaques. Accordingly, 20 μm coronal frozen brain sections were prepared from 9-13-month-old 5×FAD mice using cryostat and placed on glass slides, 3-4 consecutive sections in each slide. The slides were kept at −80° C. until used. At the beginning of the experiment, the slices were incubated for 48 hr at 37° C. with apoE3 and apoE4 astrocytes (10^5 cells in 100 μl medium per slice) in the presence of 50 μM, or otherwise indicated concentrations, of the HTS hits. The slides were gently placed in round petri dishes with thick wet paper, surrounding the slides. PapPen was used to draw liquid repellent borders of the sections to avoid spillage of coating out of the slides. The slides were gently washed of all containing remains by placing them in PBS for 10 minutes, and were then fixated with 4% PFA for 10 minutes, followed by 0.1% Triton solution for 10 minutes. The slides were then incubated with blocking solution (8% Horse Serum, 0.3% Triton, 1 gr/ml BSA, 0.02% Sodium Azide in PBS) for 30 minutes after which they were immunohistochemically stained with primary anti-PAmyloid (6E10) antibody at a dilution of 1:750 in blocking solution for 1 hr at room temperature. This was then followed by washing (×5 with PBST) and incubation with the secondary antibody (Alexa Fluor® 488 donkey α-mouse IgG, A-21202 at dilution of 1:250 at room temperature for 45 minutes. Nuclei were stained with DAPI (Vektashield, Burlingame, Calif.; H-1200). Analysis of the Aβ plaque burden was performed as percentage of the area covered in plaques using the ImageJ software.
(i) Orthogonal assay which monitors the extent to which the hits can reverse the impaired ability of apoE4 astrocytes to digest Aβ senile plaques in vitro. The principle of this orthogonal assay is presented in FIGS. 7 & 8 [17], whereas the activity of the HTS hits in this assay is presented in FIG. 9.

Human Astrocytes = assay: Cholesterol efflux (apoE4 lipidation) assay, BODIPY-cholesterol translocation to apoE4; assay type: cell-based; conditions: Astrocyte, Human astrocytes, efflux to apoE4
Method: Cholesterol efflux assay in HTS. CCF-STTG1 cells were plated in 384-well plates containing 50 μL/well RPMI supplemented with 10% FBS at a density of 5×10^3 cells/well, using a Multidrop 384 Reagent Dispenser (Thermo Scientific), and incubated for 48 hr. Cells were washed twice with 50 μl PBS using an EL406 Microplate Washer Dispenser (BioTek, Winooski, Vt., USA) before being labeled with 50 μl of 10 μM BODIPY-cholesterol+100 μM cyclodextrin (CD) in RPMI 1640 medium containing 0.2% BSA. The labeling medium was added using in a Washer Dispenser II (GNF, San Diego, Calif., USA). Plates were transferred automatically to a Liconic incubator (Mauren Principality of Liechtenstein) and incubated for 24 h. Subsequently, cells were washed twice as described above to remove external cholesterol. Next, 50 μl of the efflux medium was added, which contained recombinant apoE4 at a concentration of 40 μg/ml in transparent RPMI 1640 (no phenol red), again using Washer Dispenser II (GNF, San Diego, Calif., USA). The positive control contained the ABCA1 activator, CS-6253 (120 μg/ml) in addition to the acceptor (apoE4). After 7 hr of efflux, the medium was transferred to new plates, using the Bravo Automated Liquid Handling system (Agilent, Santa Clara, Calif., USA). Fluorescence polarization (FP) and fluorescence intensity (FI) of the medium were measured in a PheraStar FS plate reader (BMG Labtech, Ortenberg, Germany).
The apoE4 lipidation Assay is based on measurements of the ability of astrocytes to translocate fluorescently labelled cholesterol to recombinant non lipidated apoE4 and on the extent to which this effect is enhanced by treatment with each of the screened compounds (FIG. 2, 3). This assay is an adaptation of previous studies of cholesterol translocation from labelled astrocytes to external acceptors such as apoE4 [16], except that in order to differentiate between gene expression related effects and direct biochemical effects of the hits on ABCA1, the incubations of the HTS with the cells was limited to 8 hours. The extent to which the cells secret the labelled cholesterol and transfer it to non-lipidated apoE4 was determined by regular fluorescence as well as by fluorescence polarization microscopy. The latter technique in this context is used due to its sensitivity to particle size which decreases the background signal by differentiating between free and particle bound released cholesterol.
The assay was characterized biochemically and it was shown that translocation of labelled cholesterol to apoE4 is time and concentration dependent (FIG. 4) and was increased by the positive control ABCA1 agonistic 26mer peptide CS-6253 [4] (FIG. 5). The assay was used for high throughput screening (HTS) and selection of positive hits. 50,000 compounds from commercially available libraries were screened utilizing the double criteria of a signal greater than 3 standard deviations from the mean of all of the screened compounds, and being similar or greater than the apoE4 lipidation driven by the ABCA1 agonistic peptide CS-6253. Additional criteria included the tier drug ability value with tier 1 being best and tier 3 being least suitable, as well as a hydrophobicity value of 2<log P<5 value. This yielded 14 hits, designated Compounds #1-#14 (FIG. 6).

[1] = tested on: apoE4 astrocytic cell line; assay: Cellular viability / cytotoxicity of the hits; assay type: cell-based, Rodent; conditions: 50 μM
Method: FIG. 10: Effects of test compounds (HTS hits) on cellular viability. Experiments were performed on apoE4 astrocytic cell line in the presence of 50 μM of the indicated compounds. Viability was measured microscopically and by measurements of total cellular protein. (ii) Measurements of cytotoxicity of the hits.

ECD1 of ABCA1 = molecular target: T1, ECD1 of ABCA1 (Homo sapiens, UniProt O95477); assay: Microscale thermophoresis (MST) binding, label free protein; conditions: unlabelled ECD1
T1 construct: The proteins used in these experiments were Extra-Cellular Domain 1 (ECD1) of ABCA1 and Extra-Cellular Domain 2 (ECD2); purchased Biomatick
T1 sequence (O95477 43-639 limits assumed): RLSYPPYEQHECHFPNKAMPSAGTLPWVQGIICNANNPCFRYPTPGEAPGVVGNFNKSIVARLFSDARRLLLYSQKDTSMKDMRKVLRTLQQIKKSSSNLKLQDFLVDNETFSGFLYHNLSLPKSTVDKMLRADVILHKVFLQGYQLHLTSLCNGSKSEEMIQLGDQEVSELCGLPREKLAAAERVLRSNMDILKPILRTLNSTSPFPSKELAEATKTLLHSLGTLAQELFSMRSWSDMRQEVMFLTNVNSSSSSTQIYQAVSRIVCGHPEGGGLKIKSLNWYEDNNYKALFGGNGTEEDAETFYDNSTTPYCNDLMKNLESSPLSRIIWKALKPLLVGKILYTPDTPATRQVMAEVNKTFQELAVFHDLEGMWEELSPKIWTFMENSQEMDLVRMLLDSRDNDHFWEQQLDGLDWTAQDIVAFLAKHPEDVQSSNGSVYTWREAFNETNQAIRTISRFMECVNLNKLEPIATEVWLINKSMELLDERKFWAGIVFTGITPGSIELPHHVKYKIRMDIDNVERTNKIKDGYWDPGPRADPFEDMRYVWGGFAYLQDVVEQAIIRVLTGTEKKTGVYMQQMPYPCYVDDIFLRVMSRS
Method: Microscale thermophoresis (MST) measurements. MST measurements of the binding of the HTS hits to the extracellular domain (ECD) of ABCA1 were performed by two complimentary methods utilizing either fluorescently labeled proteins or the endogenous fluorescence of unlabeled proteins. This was pursued as follows:
The experiments were performed with the purified extracellual domains 1 (ECD1) and 2 (ECD2) of ABCA1 [18]. Two complementary MST tests were performed, in which either the proteins were labeled with a fluorescence moiety or the endogenous fluorescence of the unlabeled proteins was monitored).

| Compound | Hippocampal phosphorylated tau (AT180) (apoE4 TR mice) | Levels of high molecular weight lipidated ApoE4 (native gels) (apoE4 TR mice) | Total hippocampal ApoE4 levels (total SDS levels) (apoE4 TR mice) | Plaque digestion assay (50 μM) Rodent Astrocytes (Rodent Astrocytes; Table 2) | Plaque digestion assay (50 μM) Rodent Astrocytes (Rodent Astrocytes; Table 4) | EC50 (Human Astrocytes; Table 2) | EC50 (Human Astrocytes; Table 4) | Viability Rodent Astrocytes ([1]; Table 2) | Viability Rodent Astrocytes ([1]; Table 4) | Binding to ECD1 (Label free MST) Amplitude (ECD1 of ABCA1) | Kd (ECD1 of ABCA1) |
| --- | --- | --- | --- | --- | --- | --- | --- | --- | --- | --- | --- |
| Cc1cc(C)c(/C=C2\C(=O)Nc3ccccc32)[nH]1 [Hit #10] | reversed the pathology | increase | reversed the effect | 182% | 182% | > 44.8 µM | > 44.8 µM | Normal | Normal | – | – |
| O=C(O)CSc1cc(Cl)c2nonc2c1[N+](=O)[O-] [Hit N1] | reversed the pathology | increase | reversed the effect | – | – | – | – | – | – | – | – |
| Clc1cc(N2CCOCC2)c2nonc2c1 [Hit #99] | – | – | – | – | – | – | > 44.8 µM | – | – | 24.15 a.u. | 59 µM |
